Test results published in US20230148214A1, “INDAZOLES AND AZAINDAZOLES AS LRRK2 INHIBITORS” (ESCAPE Bio, Inc., priority 2020, published 2023).

Legend:
[1] = target: T1, LRRK2 G2019S (Homo sapiens, UniProt Q5S007, G2019S); assay: LRRK2 Kinase Activity Assay (LanthaScreen TR-FRET), G2019S; type: biochemical; details: recombinant G2019S-LRRK2, 25 μM ATP, 400 nM LRRKtide, 60 min; class symbols
T1 construct: purchased Life Technologies PV4881
Method in brief: (§1)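 Recombinant wild-type or G2019S LRRK2 incubated with fluorescein-labeled LRRKtide (ERM-based) peptide, ATP and serially diluted compound for 60 min at room temperature.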

[2] = target: T2, LRRK2 WT (Homo sapiens, UniProt Q5S007); assay: LRRK2 Kinase Activity Assay (LanthaScreen TR-FRET), wild type; type: biochemical; details: recombinant wild type LRRK2, 25 μM ATP, 400 nM LRRKtide, 60 min
T2 construct: purchased Life Technologies PR8604B
Method in brief: as §1

T2 sequence (Q5S007 whole entry): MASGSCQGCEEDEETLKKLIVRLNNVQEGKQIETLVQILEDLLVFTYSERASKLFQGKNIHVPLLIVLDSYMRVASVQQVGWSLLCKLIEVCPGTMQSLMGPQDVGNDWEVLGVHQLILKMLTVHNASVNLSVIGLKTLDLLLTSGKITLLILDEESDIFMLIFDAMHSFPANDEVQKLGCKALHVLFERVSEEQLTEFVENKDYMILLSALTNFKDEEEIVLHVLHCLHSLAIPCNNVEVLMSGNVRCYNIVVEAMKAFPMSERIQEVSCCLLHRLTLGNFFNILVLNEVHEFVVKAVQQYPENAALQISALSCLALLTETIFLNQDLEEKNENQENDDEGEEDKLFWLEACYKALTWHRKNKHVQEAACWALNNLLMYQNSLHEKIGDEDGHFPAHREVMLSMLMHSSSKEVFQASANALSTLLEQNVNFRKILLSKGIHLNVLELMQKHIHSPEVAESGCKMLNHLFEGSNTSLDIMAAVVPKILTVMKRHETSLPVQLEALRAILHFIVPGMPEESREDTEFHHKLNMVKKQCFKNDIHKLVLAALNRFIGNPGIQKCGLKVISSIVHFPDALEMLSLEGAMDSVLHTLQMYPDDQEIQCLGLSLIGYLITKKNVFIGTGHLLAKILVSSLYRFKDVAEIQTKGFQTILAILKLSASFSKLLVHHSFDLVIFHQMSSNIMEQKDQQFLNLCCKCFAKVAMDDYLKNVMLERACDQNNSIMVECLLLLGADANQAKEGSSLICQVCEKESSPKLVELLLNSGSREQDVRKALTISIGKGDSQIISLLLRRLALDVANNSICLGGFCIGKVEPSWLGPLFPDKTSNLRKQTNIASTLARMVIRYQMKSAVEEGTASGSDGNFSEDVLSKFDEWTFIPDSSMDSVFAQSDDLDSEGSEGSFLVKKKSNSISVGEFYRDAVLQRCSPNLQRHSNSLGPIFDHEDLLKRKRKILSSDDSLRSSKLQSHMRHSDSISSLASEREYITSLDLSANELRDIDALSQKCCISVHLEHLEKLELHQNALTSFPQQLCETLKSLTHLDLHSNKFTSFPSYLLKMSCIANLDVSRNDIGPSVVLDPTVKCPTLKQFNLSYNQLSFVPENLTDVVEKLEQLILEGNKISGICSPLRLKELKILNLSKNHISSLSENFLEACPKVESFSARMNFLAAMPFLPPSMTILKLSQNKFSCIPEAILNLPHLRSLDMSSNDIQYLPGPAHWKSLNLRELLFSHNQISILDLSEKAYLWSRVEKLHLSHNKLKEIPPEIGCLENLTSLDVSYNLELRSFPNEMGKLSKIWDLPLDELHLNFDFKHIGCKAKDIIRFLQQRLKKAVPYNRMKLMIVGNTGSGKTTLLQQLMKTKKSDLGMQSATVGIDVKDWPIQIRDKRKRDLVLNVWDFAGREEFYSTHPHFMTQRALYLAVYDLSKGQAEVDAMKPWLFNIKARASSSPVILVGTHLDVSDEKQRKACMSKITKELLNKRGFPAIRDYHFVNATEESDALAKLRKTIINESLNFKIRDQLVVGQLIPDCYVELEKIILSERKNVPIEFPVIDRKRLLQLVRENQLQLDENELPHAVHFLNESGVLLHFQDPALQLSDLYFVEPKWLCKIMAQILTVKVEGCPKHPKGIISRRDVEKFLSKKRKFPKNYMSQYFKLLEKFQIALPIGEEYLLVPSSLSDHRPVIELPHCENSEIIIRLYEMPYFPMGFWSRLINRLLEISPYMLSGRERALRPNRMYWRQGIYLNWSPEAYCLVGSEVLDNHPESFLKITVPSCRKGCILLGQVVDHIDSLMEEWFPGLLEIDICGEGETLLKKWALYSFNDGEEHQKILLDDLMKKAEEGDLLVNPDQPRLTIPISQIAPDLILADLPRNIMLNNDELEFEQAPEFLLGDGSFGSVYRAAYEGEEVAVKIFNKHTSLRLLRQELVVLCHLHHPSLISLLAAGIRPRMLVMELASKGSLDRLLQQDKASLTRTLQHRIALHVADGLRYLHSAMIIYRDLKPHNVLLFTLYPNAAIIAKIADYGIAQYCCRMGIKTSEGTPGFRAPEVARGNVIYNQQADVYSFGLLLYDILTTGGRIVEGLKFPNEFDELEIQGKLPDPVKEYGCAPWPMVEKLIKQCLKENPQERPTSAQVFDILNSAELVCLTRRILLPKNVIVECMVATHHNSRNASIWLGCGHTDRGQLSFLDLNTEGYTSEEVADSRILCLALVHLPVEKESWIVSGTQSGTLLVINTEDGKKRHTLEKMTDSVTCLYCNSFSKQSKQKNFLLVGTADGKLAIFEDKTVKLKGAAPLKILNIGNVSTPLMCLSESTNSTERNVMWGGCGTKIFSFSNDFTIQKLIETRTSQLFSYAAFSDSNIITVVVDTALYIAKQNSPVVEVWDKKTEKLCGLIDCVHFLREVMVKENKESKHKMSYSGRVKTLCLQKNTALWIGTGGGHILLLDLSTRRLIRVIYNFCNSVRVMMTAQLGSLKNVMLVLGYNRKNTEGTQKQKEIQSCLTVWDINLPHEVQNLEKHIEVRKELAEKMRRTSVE
T1 sequence (Q5S007 whole entry G2019S): as the sequence (Q5S007 whole entry) above, with G2019S counted along it

Row | Structure (SMILES) | IC50 [1] [nM] | IC50 ([2]; class symbols) [nM] | IC50 ([2]; numeric bound) [nM]
1 | COc1ccc(-c2n[nH]c3ccc(N[C@H]4CCCc5cc(C#N)ccc54)cc23)cc1 (single isomer, unassigned) [Example 92, 5-((3-(4-Methoxyphenyl)-1H-indazol-5-yl)amino)-5,6,7,8-tetrahydronaphthalene-2-carbonitrile] | < 100 | 100 to 1000 | –
2 | N#Cc1ccc2c(c1)CCC[C@@H]2Nc1ccc2[nH]nc(/C=C/c3ccccc3)c2c1 (single isomer, unassigned) [Example 93, (E)-5-((3-Styryl-1H-indazol-5-yl)amino)-5,6,7,8-tetrahydronaphthalene-2-carbonitrile] | < 100 | < 100 | –
3 | N#Cc1ccc2c(c1)CCC[C@@H]2Nc1ccc2[nH]nc(-c3ccc(Br)cc3)c2c1 (single isomer, unassigned) [Example 95, 5-((3-(4-Bromophenyl)-1H-indazol-5-yl)amino)-5,6,7,8-tetrahydronaphthalene-2-carbonitrile] | < 100 | 1000 to 10000 | –
4 | N#Cc1ccc2c(c1)CCC[C@@H]2Nc1ccc2[nH]nc(-c3cccnc3)c2c1 (single isomer, unassigned) [Example 98, 5-((3-(Pyridin-3-yl)-1H-indazol-5-yl)amino)-5,6,7,8-tetrahydronaphthalene-2-carbonitrile] | < 100 | < 100 | –
5 | Cc1cncc(-c2n[nH]c3ccc(N[C@H]4CCCc5cc(C#N)ccc54)cc23)c1 (single isomer, unassigned) [Example 100, 5-((3-(5-Methylpyridin-3-yl)-1H-indazol-5-yl)amino)-5,6,7,8-tetrahydronaphthalene-2-carbonitrile] | < 100 | < 100 | –
6 | COc1nc2c(cc1C#N)CCC[C@@H]2Nc1ccc2[nH]nc(-c3cnco3)c2c1 (single isomer, unassigned) [Example 102, enantiomer 1, 2-Methoxy-8-((3-(oxazol-5-yl)-1H-indazol-5-yl)amino)-5,6,7,8-tetrahydroquinoline-3-carbonitrile] | < 100 | < 100 | –
7 | COc1nc2c(cc1C#N)CCC[C@@H]2Nc1ccc2[nH]nc(-c3cnco3)c2c1 (single isomer, unassigned) [Example 102, enantiomer 2, 2-Methoxy-8-((3-(oxazol-5-yl)-1H-indazol-5-yl)amino)-5,6,7,8-tetrahydroquinoline-3-carbonitrile] | 100 to 1000 | 1000 to 10000 | –
8 | CC1(C)C[C@H](Nc2ccc3[nH]nc(-c4cnco4)c3c2)c2ccc(C#N)cc21 (single isomer, unassigned) [Example 105, enantiomer 2, 3,3-Dimethyl-1-((3-(oxazol-5-yl)-1H-indazol-5-yl)amino)-2,3-dihydro-1H-indene-5-carbonitrile] | < 100 | 100 to 1000 | –
9 | Cc1nc2c(cc1C#N)CCC[C@@H]2Nc1ccc2[nH]nc(-c3cnco3)c2c1 (single isomer, unassigned) [Example 106, enantiomer 1, 2-Methyl-8-((3-(oxazol-5-yl)-1H-indazol-5-yl)amino)-5,6,7,8-tetrahydroquinoline-3-carbonitrile] | < 100 | 100 to 1000 | –
10 | Cc1c(C#N)cnc2c1CC[C@@H]2Oc1ccc2[nH]nc(-c3cnco3)c2c1 (single isomer, unassigned) [Example 107, enantiomer 1, 4-Methyl-7-((3-(oxazol-5-yl)-1H-indazol-5-yl)oxy)-6,7-dihydro-5H-cyclopenta[b]pyridine-3-carbonitrile] | < 100 | < 100 | –
11 | Cc1c(C#N)cnc2c1CC[C@@H]2Oc1ccc2[nH]nc(-c3cnco3)c2c1 (single isomer, unassigned) [Example 107, enantiomer 2, 4-Methyl-7-((3-(oxazol-5-yl)-1H-indazol-5-yl)oxy)-6,7-dihydro-5H-cyclopenta[b]pyridine-3-carbonitrile] | < 100 | 100 to 1000 | –
12 | Cc1c(C#N)cnc2c1CC[C@@H]2Nc1ccc2[nH]nc(-c3cnco3)c2c1 (single isomer, unassigned) [Example 108, enantiomer 1, 4-Methyl-7-((3-(oxazol-5-yl)-1H-indazol-5-yl)amino)-6,7-dihydro-5H-cyclopenta[b]pyridine-3-carbonitrile] | < 100 | 100 to 1000 | –
13 | Cc1cc2c(cc1C#N)CCC[C@@H]2Nc1ccc2[nH]nc(-c3cnco3)c2c1 (single isomer, unassigned) [Example 110, enantiomer 1, 3-Methyl-5-((3-(oxazol-5-yl)-1H-indazol-5-yl)amino)-5,6,7,8-tetrahydronaphthalene-2-carbonitrile] | < 100 | < 100 | –
14 | Cc1cc2c(cc1C#N)CCC[C@@H]2Nc1ccc2[nH]nc(-c3cnco3)c2c1 (single isomer, unassigned) [Example 110, enantiomer 2, 3-Methyl-5-((3-(oxazol-5-yl)-1H-indazol-5-yl)amino)-5,6,7,8-tetrahydronaphthalene-2-carbonitrile] | < 100 | 100 to 1000 | –
15 | CN(c1ccc2[nH]nc(-c3cnco3)c2c1)[C@H]1CCc2cc(C#N)ccc21 (single isomer, unassigned) [Example 111, enantiomer 1, 1-(Methyl(3-(oxazol-5-yl)-1H-indazol-5-yl)amino)-2,3-dihydro-1H-indene-5-carbonitrile] | < 100 | < 100 | –
16 | CN(c1ccc2[nH]nc(-c3cnco3)c2c1)[C@H]1CCc2cc(C#N)ccc21 (single isomer, unassigned) [Example 111, enantiomer 2, 1-(Methyl(3-(oxazol-5-yl)-1H-indazol-5-yl)amino)-2,3-dihydro-1H-indene-5-carbonitrile] | < 100 | 100 to 1000 | –

Results, then the compound that gave them:

Row | IC50 [1] [nM] | IC50 ([2]; class symbols) [nM] | IC50 ([2]; numeric bound) [nM] | Structure (SMILES)
17 | 1000 to 10000 | – | > 10000 | CN1CC=C(c2n[nH]c3ccc(N[C@H]4CCCc5cc(C#N)ccc54)cc23)CC1 (single isomer, unassigned) [Example 94, 5-((3-(1-Methyl-1,2,3,6-tetrahydropyridin-4-yl)-1H-indazol-5-yl)amino)-5,6,7,8-tetrahydronaphthalene-2-carbonitrile]
18 | < 100 | < 100 | – | N#Cc1ccc2c(c1)CCC[C@@H]2Nc1ccc2[nH]nc(-c3cnn4c3CCC4)c2c1 (single isomer, unassigned) [Example 96, 5-((3-(5,6-Dihydro-4H-pyrrolo[1,2-b]pyrazol-3-yl)-1H-indazol-5-yl)amino)-5,6,7,8-tetrahydronaphthalene-2-carbonitrile]
19 | < 100 | 100 to 1000 | – | Cn1ccc(-c2n[nH]c3ccc(N[C@H]4CCCc5cc(C#N)ccc54)cc23)cc1=O (single isomer, unassigned) [Example 97, 5-((3-(1-Methyl-2-oxo-1,2-dihydropyridin-4-yl)-1H-indazol-5-yl)amino)-5,6,7,8-tetrahydronaphthalene-2-carbonitrile]
20 | < 100 | 100 to 1000 | – | C/C=C\c1n[nH]c2ccc(N[C@H]3CCCc4cc(C#N)ccc43)cc12 (single isomer, unassigned) [Example 99, (Z)-5-((3-(Prop-1-en-1-yl)-1H-indazol-5-yl)amino)-5,6,7,8-tetrahydronaphthalene-2-carbonitrile]
21 | < 100 | < 100 | – | COc1c(C#N)ccc2c1CCC[C@@H]2Nc1ccc2[nH]nc(-c3cnco3)c2c1 (single isomer, unassigned) [Example 101, enantiomer 1, 1-Methoxy-5-{[3-(1,3-oxazol-5-yl)-1H-indazol-5-yl]amino}-5,6,7,8-tetrahydronaphthalene-2-carbonitrile]
22 | < 100 | < 100 | – | N#Cc1cnc2c(c1)CC[C@@H]2Oc1ccc2[nH]nc(-c3cnco3)c2c1 (single isomer, unassigned) [Example 103, enantiomer 1, 7-((3-(Oxazol-5-yl)-1H-indazol-5-yl)oxy)-6,7-dihydro-5H-cyclopenta[b]pyridine-3-carbonitrile]
23 | < 100 | < 100 | – | N#Cc1ccc2c(c1)CCCC[C@@H]2Nc1ccc2[nH]nc(-c3cnco3)c2c1 (single isomer, unassigned) [Example 104, enantiomer 1, 5-((3-(Oxazol-5-yl)-1H-indazol-5-yl)amino)-6,7,8,9-tetrahydro-5H-benzo[7]annulene-2-carbonitrile]
24 | 100 to 1000 | 100 to 1000 | – | N#Cc1ccc2c(c1)CCCC[C@@H]2Nc1ccc2[nH]nc(-c3cnco3)c2c1 (single isomer, unassigned) [Example 104, enantiomer 2, 5-((3-(Oxazol-5-yl)-1H-indazol-5-yl)amino)-6,7,8,9-tetrahydro-5H-benzo[7]annulene-2-carbonitrile]
25 | < 100 | 100 to 1000 | – | CC1(C)C[C@H](Nc2ccc3[nH]nc(-c4cnco4)c3c2)c2ccc(C#N)cc21 (single isomer, unassigned) [Example 105, enantiomer 1, 3,3-Dimethyl-1-((3-(oxazol-5-yl)-1H-indazol-5-yl)amino)-2,3-dihydro-1H-indene-5-carbonitrile]
26 | < 100 | < 100 | – | N#Cc1cnc2c(c1)CC[C@@H]2Nc1ccc2[nH]nc(-c3cnco3)c2c1 (single isomer, unassigned) [Example 109, enantiomer 1, 7-((3-(Oxazol-5-yl)-1H-indazol-5-yl)amino)-6,7-dihydro-5H-cyclopenta[b]pyridine-3-carbonitrile]
27 | < 100 | 100 to 1000 | – | N#Cc1cnc2c(c1)CC[C@@H]2Nc1ccc2[nH]nc(-c3cnco3)c2c1 (single isomer, unassigned) [Example 109, enantiomer 2, 7-((3-(Oxazol-5-yl)-1H-indazol-5-yl)amino)-6,7-dihydro-5H-cyclopenta[b]pyridine-3-carbonitrile]
